Experimental data reported in PMC9917132, “Tenebrio molitor as a Simple and Cheap Preclinical Pharmacokinetic and Toxicity Model” (International Journal of Molecular Sciences, 2023).
Like-named read-outs stand apart in the source and are kept apart here.

Columns and labels:
[1] = system: adult exemplars of T. molitor Coleoptera; experiment: Toxicity of vehicles in adult T. molitor Coleoptera (survival, vitals monitored daily for seven days); type: in vivo, Tenebrio molitor; details: for Survival %: groups of six TMC, seven days; for tolerability: 1 µL per TMC (lower dose)
Description: Considering the limited volume of hemolymph, we considered injecting 1 or 2 µL of vehicles per TMC. The most common vehicles used for i.v. and i.p. studies were administered to experimental groups of six TMC and vitals were monitored daily for seven days. Results are reported in Table 1, expressed as survival %.
TMC were randomly selected for toxicity assessment. TMC older than 3 days were discarded. Compounds were solubilized in the opportune vehicle and injected on the hemocoel using a Hamilton syringe, (7001 KH, volume 1 µL, needle size 25 s, cone tip), by administering 1 µL of compound on the TMC dorsal side, between the pronotum and elytron.

Rats = details: cited from earlier work; for LD50: reported
Mice = details: cited from earlier work
[2] = Acute toxicity (LD50) in adult T. molitor Coleoptera (TMC) after injection in the hemocoel; type: in vivo, Tenebrio molitor; details: Tenebrio molitor, in vivo, other: injection in the hemocoel; 1 µL in 100% DMSO injected in hemocoel; mortality recorded daily for 7 days; highest dose 2000 mg/kg
Description: (§1) The literature was carefully studied to identify the starting dose of a panel of drugs; however, when no data were available, the protocol described in Figure 1 was adopted, using 1 TMC and starting from the dose of 200 mg/kg.
(§2) The protocol depicted in Figure 2 has been adopted to determine LD50, starting from the opportune dose determined as described above. A panel of 20 drugs available on the market, including antivirals, antibiotics and the representative drugs for several pharmaceutical classes, was analyzed (Table 2).
(§3) Figure 2 Flowchart for LD50 determination. Starting from the opportune initial dose, LD50 was determined by changing the dose based on results and increasing the number of […] for final determinations. GHS cat.: Globally Harmonized System category. The numbers on the circles represent the number of deaths in exemplars.
(§4) TMC were randomly selected for toxicity assessment. TMC older than 3 days were discarded.
(§5) Acute toxicity was determined following the Organization for Economic Cooperation and Development (OECD) guidelines for acute toxicity of chemicals. All the available information on the test substance was considered to select the toxic dose of test compounds. Data were collected considering LD50 already reported for humans, rats and mice or, when possible, insects (e.g., Galleria mellonella). The initial dose, expressed in mg/kg, was calculated as the lowest LD50 reported in the literature. When no data were found in the literature, the starting dose of 200 mg/kg was used and the range-finding study was conducted with 1 TMC, by adapting OECD guidelines (Figure 1). To perform LD50 calculation study, 5 TMC were injected with the selected dose, and mortality was recorded daily for 7 days. Each experiment included 1 control group treated with DMSO. […] If 1 or less TMC died, the experiment was performed with a higher dose. If 2 or 3 TMC died, the experiment was repeated by re-testing the initial dose with 10 TMC. […] The experiment continued until a toxic dose was determined.

[3] = NADPH-generating system, 37 °C, pH 7.4
Description: To characterize their phase I metabolism, the drugs were incubated with human or rat microsomes and their main metabolites were determined by HPLC-MS analysis and compared to data already reported (Table 3).
After centrifuging the reaction mixtures, the parent drug and its metabolites were characterized by LC-UV-MS [38].
HPLC analysis was performed using an Agilent 1100 LC/MSD VL system (G1946C) (Agilent Technologies, Palo Alto, CA) comprising a vacuum solvent degassing unit, a binary high-pressure gradient pump and a 1100 series UV detector; a 1100 MSD model VL benchtop mass spectrometer was used to perform the chromatographic analysis. Chromatographic separation was obtained using a Phenomenex Kinetex C18-100 Å column (100–4.6 mm, 5 μm particle size). […] The injection volume was 20 μL and the flow rate was 0.4 mL min^−1. The orthogonal spray API-ES was installed on the Agilent 1100 series mass spectra-detection single-quadrupole instrument (Agilent Technologies, Palo Alto, CA, USA). N2 was used as a nebulizing and drying gas. The vaporization temperature, capillary voltage, fragmentor voltage, drying gas flow and pressure were set at […], respectively. […] The LC-ESI-MS measurements were performed by operating in either the positive or negative ion mode. Spectra were acquired over the scan range m/z 100–1500 using a step size of 0.1 u. […]

[4] = cited from earlier work; for T ½ / Vd: PK literature data
[5] = set-up: method as in doi:10.1201/9780429460418; details: literature data; cited from earlier work
[6] = Preliminary in vivo PK in TMC (hemolymph analysis by HPLC); details: single dose equal to half the LD50 (62.5 or 150 mg/kg); hemolymph at 0, 1, 2, 4, 8, 24 hpt
[7] = set-up: method as in doi:10.1201/9780429460418; details: literature data; cited from earlier work; remark: listed apart in the source
guinea pigs = details: i.v., reported; cited from earlier work
dogs = details: i.v., reported; cited from earlier work
[8] = set-up: method as in PMID 33649113; details: oral administration; cited from earlier work
Tenebrio molitor = experiment: Acute toxicity (LD50) in adult T. molitor Coleoptera (TMC) after injection in the hemocoel; type: in vivo; details: dose of 2000 mg/kg
Description: as §1, §2, §3, §4, §5

[9] = in some people, depending on age and state of health

Row | Compound | LD50 Mice ip (Mice) [mg/kg] | LD50 at 7 days [2] [mg/kg] | LD50 Rats ip (Rats) [mg/kg] | LD50 Mice iv (Mice) [mg/kg] | LD50 Rats iv (Rats) [mg/kg] | also measured
1 | CC(C)=O [Acetone] |  |  |  |  |  | Survival % ([1]; 1 µL injected per TMC): 100%; tolerability [1]: well tolerated; Survival % ([1]; 2 µL injected per TMC): 16.6%
2 | Nc1nc2c(ncn2COCCO)c(=O)[nH]1 [Acyclovir] | 1000 | > 2000 |  |  |  | LD50 (dose reported by Tucker et al.) (Rats; rats): greater than 650 mg/kg
3 | CC1(C)S[C@@H]2[C@H](NC(=O)[C@H](N)c3ccc(O)cc3)C(=O)N2[C@H]1C(=O)O [Amoxicillin] |  | 750 | 2870 |  |  | 
4 | NC(=O)N1c2ccccc2C=Cc2ccccc21 [Carbamazepine] | 114 | 125 | 158 |  |  | Stability % Human Microsomes ([3]; human liver microsomes 0.2 mg/mL, 60 min): 77.54%; T ½ [4]: 5 h; Vd [4]: 0.8 to 1.9 L/kg; Protein Binding [5]: 70–80%; elimination / metabolism of parent drug in TMC hemolymph [6]: decreased after 4h
5 | O=C(N[C@H](CO)[C@H](O)c1ccc([N+](=O)[O-])cc1)C(Cl)Cl [Chloramphenicol] |  | 300 |  | 171 |  | 
6 | CN(C)CCCN1c2ccccc2Sc2ccc(Cl)cc21 [Chlorpromazine] | 14 | 300 | 137 | 106 |  | Stability % Rats Microsomes ([3]; rat liver microsomes 0.2 mg/mL, 30 min): 77.99%; LogS [7]: −5.01; T ½ [4]: 8 to 35 h; Vd [4]: 7 to 20 L/kg; t ½ (prolonged) [4, 9]: 60 h; t ½ (reduced) [4, 9]: 2 h; Protein Binding [5]: 95–98%; elimination / metabolism of parent drug in TMC hemolymph [6]: extensively metabolized
7 | CN/C(=N/CCSCc1nc[nH]c1C)NC#N [Cimetidine] | 306 | 750 | 328 | 150 | 326 | 
8 | Cc1onc(-c2ccccc2Cl)c1C(=O)N[C@@H]1C(=O)N2[C@@H]1SC(C)(C)[C@@H]2C(=O)O [Cloxacillin] |  | 750 |  |  | 1660 | 
9 | COc1ccc2c3c1O[C@H]1[C@@H](O)C=C[C@H]4[C@@H](C2)N(C)CC[C@@]341 [Codeine] | 60 | 50 | 100 |  | 75 | 
10 | C[S+](C)[O-] [DMSO] |  |  |  |  |  | LD50 (Rats; i.v., rats): 5400 mg/kg; LD50 (Mice; i.v., mice, reported): 20600 mg/kg; LD50 (guinea pigs): 6500 mg/kg; Survival % ([1]; 1 µL injected per TMC): 100%; tolerability [1]: well tolerated; Survival % ([1]; 2 µL injected per TMC): 0%; lethality ([1]; 2 µL per TMC): 100%; LD50 (dogs): 2500 mg/kg
11 | CCO [EtOH] |  |  |  |  |  | LD50 (Rats; rats, route not given): 1400 mg/kg; Survival % ([1]; 1 µL injected per TMC): 100%; tolerability [1]: well tolerated; Survival % ([1]; 2 µL injected per TMC): 50%
12 | CC(C(=O)O)c1cccc(C(=O)c2ccccc2)c1 (stereo not shown) [Ketoprofen] | 300 |  | 80 |  | 350 | 
13 | Cc1cccc(C)c1NC(=O)C1CCCCN1C (stereo not shown) [Mepivacaine] | 135 | 125 |  | 35 | 30 | 
14 | COCCc1ccc(OCC(O)CNC(C)C)cc1 (stereo not shown) [Metoprolol] | >200 | 500 |  | 62 | 71.9 | 
15 | CC(C)C(=O)OC[C@H]1O[C@@H](n2ccc(NO)nc2=O)[C@H](O)[C@@H]1O [Molnupiravir] |  | > 2000 |  |  |  | LD50 [8]: > 800 mg/kg; toxicity at the highest dose (Tenebrio molitor): absence of toxicity
16 | CC(=O)Nc1ccc(O)cc1 [Paracetamol] | 340 | 125 |  |  |  | 
17 | O=C(O)c1ccccc1O [Salicylic acid] | 300 |  |  |  |  | 
18 | Nc1ccc(S(=O)(=O)Nc2ncccn2)cc1 [Sulfadiazine] | 750 | 300 | 446 | 180 | 880 | 
19 | COc1cc(Cc2cnc(N)nc2N)cc(OC)c1OC [Trimethoprim] | 400 | 300 | 500 | 132 |  | 
